Data reported in ChEMBL document CHEMBL3885861, “Open TG-GATES”.

Species on record: Rattus norvegicus
Assay: Open TG-GATES - Regimen: Daily Repeat
Format: toxicity, organism-based, Sprague-Dawley
Parameters: regimen Daily Repeat, gender Male, age 6 weeks
Conditions: in vivo, po, 30 mg/kg, route gavage, dose level Low; for APTT / Bas / Eos / Fbg / Hb / Ht / Lym / MCH / MCHC / MCV / Mono / Neu / PT / Plat / RBC / Ret / WBC: tissue Blood; for KIDNEY_L / KIDNEY_R / KIDNEY_TOTAL: tissue Kidney; for LIVER: tissue Liver; for A/G / ALP / ALT / AST / BUN / CRE / Ca / Cl / DBIL / GLC / IP / K / LDH / Na / PL / RALB / TBIL / TC / TG / TP / gamma-GTP: tissue Plasma

With Brc1ccccc1 [BROMOBENZENE] the TERMINAL_BW (72 h, time 3 day) was 211.4 g, the APTT (72 h, time 3 day) was 16.2 s and the Bas (72 h, time 3 day) was 0%. The Eos (72 h, time 3 day) was 1%, the Fbg (72 h, time 3 day) was 274.2 mg/dL and the Hb (72 h, time 3 day) was 13.2 g/dL. For the same compound, the Ht (72 h, time 3 day) was 38.9%, the Lym (72 h, time 3 day) was 76.6% and the MCH (72 h, time 3 day) was 21.2 pg. The MCHC (72 h, time 3 day) was 34%, the MCV (72 h, time 3 day) was 62.4 fL and the Mono (72 h, time 3 day) was 4.2%. It also gave a Neu (72 h, time 3 day) of 17.8%, a PT (72 h, time 3 day) of 12 s and a Plat (72 h, time 3 day) of 113.4 x10_4/uL. The RBC (72 h, time 3 day) was 624.8 x10_4/ul, the Ret (72 h, time 3 day) was 7.4% and the WBC (72 h, time 3 day) was 117.5 x10_2/uL. The KIDNEY_L (72 h, time 3 day) was 0.9 g, the KIDNEY_R (72 h, time 3 day) was 0.9 g and the KIDNEY_TOTAL (72 h, time 3 day) was 1.8 g. It also gave an LIVER (72 h, time 3 day) of 10.6 g, an A/G (72 h, time 3 day) of 0.9 and an ALP (72 h, time 3 day) of 1588.2 IU/L. The ALT (72 h, time 3 day) was 54.2 IU/L, the AST (72 h, time 3 day) was 70.2 IU/L and the BUN (72 h, time 3 day) was 13.8 mg/dL. For the same compound, the CRE (72 h, time 3 day) was 0.2 mg/dL, the Ca (72 h, time 3 day) was 10.4 mg/dL and the Cl (72 h, time 3 day) was 105.2 meq/L. For the same compound, the DBIL (72 h, time 3 day) was 0.012 mg/dL, the GLC (72 h, time 3 day) was 182 mg/dL and the IP (72 h, time 3 day) was 7.3 mg/dL. It also gave a K (72 h, time 3 day) of 4.1 meq/L, an LDH (72 h, time 3 day) of 77 IU/L and a Na (72 h, time 3 day) of 142 meq/L. It also gave a PL (72 h, time 3 day) of 154 mg/dL, an RALB (72 h, time 3 day) of 2.6 g/dL and a TBIL (72 h, time 3 day) of 0.05 mg/dL. For the same compound, the TC (72 h, time 3 day) was 84.6 mg/dL, the TG (72 h, time 3 day) was 76 mg/dL and the TP (72 h, time 3 day) was 5.6 g/dL. The gamma-GTP (72 h, time 3 day) was 1.2 IU/L, the TERMINAL_BW ([…], time 7 day) was 250.4 g and the TERMINAL_BW ([…], time 14 day) was 301.3 g. It also gave a TERMINAL_BW ([…], time 28 day) of 378.5 g, an APTT ([…], time 7 day) of 16.1 s and a Bas ([…], time 7 day) of 0%. For the same compound, the Eos ([…], time 7 day) was 1%, the Fbg ([…], time 7 day) was 272.4 mg/dL and the Hb ([…], time 7 day) was 12.9 g/dL. The Ht ([…], time 7 day) was 37.6%, the Lym ([…], time 7 day) was 78% and the MCH ([…], time 7 day) was 21.3 pg. The MCHC ([…], time 7 day) was 34.4%, the MCV ([…], time 7 day) was 62 fL and the Mono ([…], time 7 day) was 2.6%. It also gave a Neu ([…], time 7 day) of 18%, a PT ([…], time 7 day) of 12.7 s and a Plat ([…], time 7 day) of 117.9 x10_4/uL. The RBC ([…], time 7 day) was 606.8 x10_4/ul, the Ret ([…], time 7 day) was 6.2% and the WBC ([…], time 7 day) was 100.6 x10_2/uL. The APTT ([…], time 14 day) was 16 s, the Bas ([…], time 14 day) was 0% and the Eos ([…], time 14 day) was 0.8%. It also gave a Fbg ([…], time 14 day) of 316.2 mg/dL, a Hb ([…], time 14 day) of 14.2 g/dL and a Ht ([…], time 14 day) of 41.2%. It also gave a Lym ([…], time 14 day) of 81.6%, an MCH ([…], time 14 day) of 20.5 pg and an MCHC ([…], time 14 day) of 34.5%. It also gave an MCV ([…], time 14 day) of 59.2 fL, a Mono ([…], time 14 day) of 2.6% and a Neu ([…], time 14 day) of 14.4%. The PT ([…], time 14 day) was 11.7 s, the Plat ([…], time 14 day) was 116 x10_4/uL and the RBC ([…], time 14 day) was 696.6 x10_4/ul. The Ret ([…], time 14 day) was 4.2%, the WBC ([…], time 14 day) was 87.7 x10_2/uL and the APTT ([…], time 28 day) was 16.4 s. It also gave a Bas ([…], time 28 day) of 0.2%, an Eos ([…], time 28 day) of 1.2% and a Fbg ([…], time 28 day) of 305.8 mg/dL. For the same compound, the Hb ([…], time 28 day) was 15 g/dL, the Ht ([…], time 28 day) was 42.8% and the Lym ([…], time 28 day) was 75.6%. The MCH ([…], time 28 day) was 19.7 pg, the MCHC ([…], time 28 day) was 35% and the MCV ([…], time 28 day) was 56.2 fL. For the same compound, the Mono ([…], time 28 day) was 3%, the Neu ([…], time 28 day) was 19% and the PT ([…], time 28 day) was 12.6 s. It also gave a Plat ([…], time 28 day) of 103.7 x10_4/uL, an RBC ([…], time 28 day) of 762.2 x10_4/ul and a Ret ([…], time 28 day) of 2.7%. The WBC ([…], time 28 day) was 101.5 x10_2/uL, the KIDNEY_L ([…], time 7 day) was 1 g and the KIDNEY_R ([…], time 7 day) was 1 g. It also gave a KIDNEY_TOTAL ([…], time 7 day) of 2 g, a KIDNEY_L ([…], time 14 day) of 1.2 g and a KIDNEY_R ([…], time 14 day) of 1.2 g. For the same compound, the KIDNEY_TOTAL ([…], time 14 day) was 2.4 g, the KIDNEY_L ([…], time 28 day) was 1.3 g and the KIDNEY_R ([…], time 28 day) was 1.3 g. It also gave a KIDNEY_TOTAL ([…], time 28 day) of 2.7 g, an LIVER ([…], time 7 day) of 12.3 g and an LIVER ([…], time 14 day) of 14.5 g. It also gave an LIVER ([…], time 28 day) of 16.3 g, an A/G ([…], time 7 day) of 0.9 and an ALP ([…], time 7 day) of 1766.2 IU/L. For the same compound, the ALT ([…], time 7 day) was 40.6 IU/L, the AST ([…], time 7 day) was 71 IU/L and the BUN ([…], time 7 day) was 14.4 mg/dL. The CRE ([…], time 7 day) was 0.2 mg/dL, the Ca ([…], time 7 day) was 11.1 mg/dL and the Cl ([…], time 7 day) was 105.2 meq/L. The DBIL ([…], time 7 day) was 0.01 mg/dL, the GLC ([…], time 7 day) was 195 mg/dL and the IP ([…], time 7 day) was 7 mg/dL. The K ([…], time 7 day) was 3.9 meq/L, the LDH ([…], time 7 day) was 109 IU/L and the Na ([…], time 7 day) was 143.4 meq/L. The PL ([…], time 7 day) was 143 mg/dL, the RALB ([…], time 7 day) was 2.7 g/dL and the TBIL ([…], time 7 day) was 0.042 mg/dL. For the same compound, the TC ([…], time 7 day) was 74.6 mg/dL, the TG ([…], time 7 day) was 84.4 mg/dL and the TP ([…], time 7 day) was 5.8 g/dL. It also gave a gamma-GTP ([…], time 7 day) of 1.4 IU/L, an A/G ([…], time 14 day) of 0.8 and an ALP ([…], time 14 day) of 1573.2 IU/L. For the same compound, the ALT ([…], time 14 day) was 40 IU/L, the AST ([…], time 14 day) was 65 IU/L and the BUN ([…], time 14 day) was 15.2 mg/dL. It also gave a CRE ([…], time 14 day) of 0.2 mg/dL, a Ca ([…], time 14 day) of 11 mg/dL and a Cl ([…], time 14 day) of 105.6 meq/L. It also gave a DBIL ([…], time 14 day) of 0.01 mg/dL, a GLC ([…], time 14 day) of 191.6 mg/dL and an IP ([…], time 14 day) of 6.8 mg/dL. For the same compound, the K ([…], time 14 day) was 4.1 meq/L, the LDH ([…], time 14 day) was 84.8 IU/L and the Na ([…], time 14 day) was 143 meq/L. For the same compound, the PL ([…], time 14 day) was 158.2 mg/dL, the RALB ([…], time 14 day) was 2.8 g/dL and the TBIL ([…], time 14 day) was 0.038 mg/dL. It also gave a TC ([…], time 14 day) of 74.2 mg/dL, a TG ([…], time 14 day) of 159.4 mg/dL and a TP ([…], time 14 day) of 6.2 g/dL. It also gave a gamma-GTP ([…], time 14 day) of 0.8 IU/L, an A/G ([…], time 28 day) of 0.8 and an ALP ([…], time 28 day) of 1032.4 IU/L. It also gave an ALT ([…], time 28 day) of 36 IU/L, an AST ([…], time 28 day) of 59.8 IU/L and a BUN ([…], time 28 day) of 15.8 mg/dL. For the same compound, the CRE ([…], time 28 day) was 0.2 mg/dL, the Ca ([…], time 28 day) was 10.7 mg/dL and the Cl ([…], time 28 day) was 105.8 meq/L. The DBIL ([…], time 28 day) was 0.016 mg/dL, the GLC ([…], time 28 day) was 190.2 mg/dL and the IP ([…], time 28 day) was 6 mg/dL. For the same compound, the K ([…], time 28 day) was 3.8 meq/L, the LDH ([…], time 28 day) was 58.6 IU/L and the Na ([…], time 28 day) was 142.8 meq/L. The PL ([…], time 28 day) was 152.2 mg/dL, the RALB ([…], time 28 day) was 2.9 g/dL and the TBIL ([…], time 28 day) was 0.034 mg/dL. For the same compound, the TC ([…], time 28 day) was 80.6 mg/dL, the TG ([…], time 28 day) was 141.4 mg/dL and the TP ([…], time 28 day) was 6.5 g/dL. For the same compound, the gamma-GTP ([…], time 28 day) was 1 IU/L.
